Results as given in US20060046999A1, “Monocyclic aroylpyridinones as antiinflammatory agents” (priority 2002, published 2006).
pIC50: −log10 of the molar value.

Target: p38 map kinase (Homo sapiens, UniProt Q16539)
Test: p38 map kinase SPA [33P] assay
Type: biochemical
Conditions: 10 μM ATP, 2.5 μM biotinylated MBP substrate, 90 min at 30° C.
Excerpt: The assay makes use of the serine/threonine protein kinase SPA [^33P]-assay kit from Amersham Pharmacia Biotech. The assay is a homogeneous technique using SPA technology for the quantification of serine threonine kinase activity.
It is based on the p38 map kinase catalysed transfer of the γ-phosphate group of the [γ-^33P]-ATP to the substrate, biotinylated myelin basic protein (MBP). The resulting [^33P]-labelled biotinylated product is trapped on a PVT SPA bead containing scintillant which has been surface coated with streptavidin.
The beads are allowed to settle to eliminate high background, and therefore only ^33P_labelled product attached to the SPA bead is detected.
The assay is carried out in the presence and absence of test compounds to determine their effect on p38 map kinase activity.
A Test Protocol is as Follows:
• 1. SPA assay kit (Amersham). Components: • Assay buffer (store frozen) • Stop solution (store frozen) • Streptavidin coated SPA beads—reconstitute with 5 ml of PBS (50 mg/ml) (store in fridge) • 2. p38 map kinase enzyme (500 μg/ml)—aliquoted in 1.5 ml • dilute 1:10 to 50 μg/ml • 1 plate: 110 μl (stock 500 μg/ml)+990 μl PBS. • 3. Assay reagent: • for 1 plate: 504 μl assay buffer [500 mM MOPS pH 7.2, 10 μM ATP, 50 mM MgCl2, 25 μM biotinylated myelin basic protein (MBP)] • 2513.4 μl water • 1.1 μl [^33P]-ATP (10 μCi/μl) (on activity date/adjust for activity date) • 4.534 μl X10-2M ATP in water • 4. Stop solution: • for 1 plate: 265.92 μl streptavidin coated beads (50 mg/ml) • 1651.68 μl stop buffer (500 μM ATP, 50 mM EDTA, 1% Triton X-100) • 7084.32 μl PBS. • 1. Add 10 μl compound dilutions (5× final conc.) to test wells • 2. Add 10 μl 12.5% DMSO to control/blank wells • 3. Add 10 μl enzyme (50 μg/ml)—final conc. 500 ng/well • 4. Add 10 μl PBS to blank wells • 5. Add 30 μl of assay reagent to each well (final conc. 10 μM ATP, 2.5 μM substrate) • 6. Mix well on plate shaker • 7. Incubate 90 min (30° C.) • 8. Add 75 μl of stop solution to each well (final conc. 55 μM ATP) • 9. Spin plate: 3 min/1600 rpm/20° C. (alternatively leave to settle overnight) • 10. Read in Microbeta, Protocol SPA paralux 3.

Sequence of p38 map kinase (Q16539 whole entry): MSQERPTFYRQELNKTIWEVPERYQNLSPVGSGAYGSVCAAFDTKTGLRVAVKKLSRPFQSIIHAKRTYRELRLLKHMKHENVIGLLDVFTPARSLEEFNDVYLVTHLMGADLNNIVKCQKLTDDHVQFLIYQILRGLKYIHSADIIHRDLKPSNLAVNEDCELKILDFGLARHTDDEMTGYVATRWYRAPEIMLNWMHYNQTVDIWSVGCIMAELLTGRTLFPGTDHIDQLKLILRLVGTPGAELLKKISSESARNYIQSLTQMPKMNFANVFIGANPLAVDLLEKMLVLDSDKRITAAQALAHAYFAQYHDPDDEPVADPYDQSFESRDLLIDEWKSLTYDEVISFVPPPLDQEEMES

pIC50	Compound
6.49	O=C(c1ccccc1)c1ccc(=O)n(Cc2ccccc2)c1NCc1ccccc1 [Example 2, 5-Benzoyl-1-benzyl-6-(benzylamino)-2(1H)-pyridinone]
6.52	COc1ccc(-n2c(N)c(C(=O)c3ccccc3)ccc2=O)cc1 [Example 4, 6-Amino-5-benzoyl-1-(4-methoxyphenyl)-2(1H)-pyridinone]
5.89	O=C(c1ccccc1)c1ccc(=O)[nH]c1NC1CCCCC1 [Example 5, 5-Benzoyl-6-(cyclohexylamino)-2(1H)-pyridinone]
6.69	Nc1c(C(=O)c2ccccc2)ccc(=O)n1-c1ccccc1 [Example 6, 6-Amino-5-benzoyl-1-phenyl-2(1H)-pyridinone]
6.68	Cc1ccc(-n2c(N)c(C(=O)c3ccccc3)ccc2=O)cc1 [Example 9, 6-amino-5-benzoyl-1-(4-methylphenyl)-2(1H)-pyridinone]
5.73	CC(C)C(Nc1c(C(=O)c2ccccc2)ccc(=O)n1C)C(C)C [Example 14, 5-Benzoyl-6-[(1-isopropyl-2-methylpropyl)amino]-1-methyl-2(1H)-pyridinone]
5.39	O=C(c1ccccc1)c1ccc(=O)[nH]c1NCC1CCCCC1 [Example 15, 5-Benzoyl-6-[(cyclohexylmethyl)amino]-2(1H)-pyridinone]
6.90	COc1ccc(-n2c(N)c(C(=O)c3ccc(F)cc3)ccc2=O)c(OC)c1 [Example 20, 6-Amino-1-(2,4-dimethoxyphenyl)-5-(4-fluorobenzoyl)-2(1H)-pyridinone]
